Laboratory results from patent US11535621B2, “Heterobicyclic amides as inhibitors of CD38” (Ribon Therapeutics, Inc., priority 2019, dated 2022).

These molecules were tested against Human CD38 (Homo sapiens (Human), UniProt P28907) (assay: CD38 enzyme assay). Settings: 2 nM CD38, NAD+ substrate, absorbance at 405 nm.
Format: biochemical
Text: [formula] where SUBcmpd is the subtracted value for the individual compound treated well, SUBmin is the average of the subtracted values of the 4-(((1r,4r)-4-(2-methoxyethoxy)cyclohexyl)amino)-1-methyl-6-(thiazol-5-yl)quinolin-2(1H)-one positive control wells and SUBmax is the average of the subtracted values of the DMSO negative control wells.
The % inhibition values were plotted as a function of compound concentration and the following 4-parameter fit was applied to derive the IC50 values:
[formula] where top and bottom are normally allowed to float, but may be fixed at 100 or 0 respectively in a 3-parameter fit. The Hill Coefficient is normally allowed to float but may also be fixed at 1 in a 3-parameter fit. Y is the % inhibition and X is the compound concentration.

Sequence of Human CD38 (P28907 whole entry): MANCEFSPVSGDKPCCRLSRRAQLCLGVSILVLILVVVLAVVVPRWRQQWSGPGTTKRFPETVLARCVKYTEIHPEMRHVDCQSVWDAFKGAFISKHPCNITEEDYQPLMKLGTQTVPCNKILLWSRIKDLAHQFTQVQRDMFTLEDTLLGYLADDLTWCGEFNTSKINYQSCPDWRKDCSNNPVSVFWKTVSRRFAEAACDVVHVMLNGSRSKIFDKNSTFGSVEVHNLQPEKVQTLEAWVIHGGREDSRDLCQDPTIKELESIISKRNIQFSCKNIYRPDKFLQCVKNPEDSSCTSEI

Row | SMILES | IC50
1 | COCCO[C@H]1CC[C@H](NC(=O)c2cc(-n3ccnc3)c(F)c3cc[nH]c23)CC1 [Example 29, 4-Fluoro-5-(1H-imidazol-1-yl)-N-((1r,4r)-4-(2-methoxyethoxy)cyclohexyl)-1H-indole-7-carboxamide] | 100 to 1000 nM
2 | O=C(NC1CCCCC1)c1nc(-n2ccnc2)nc2cc[nH]c12 [Example 59, N-cyclohexyl-2-(1H-Imidazol-1-yl)-5H-pyrrolo[3,2-d]pyrimidine-4-carboxamide] | < 10 nM
3 | C[C@H](O)[C@H]1CC[C@H](NC(=O)c2nc(-n3ccnc3)nc3ccsc23)CC1 (single isomer, unassigned) [Example 267b] | 10 to 100 nM
4 | Cn1cc(NC(=O)c2nc(-n3ccnc3)nc3cc[nH]c23)cn1 [Example 99, 2-(1H-Imidazol-1-yl)-N-(1-methyl-1H-pyrazol-4-yl)-5H-pyrrolo[3,2-d]pyrimidine-4-carboxamide] | < 10 nM
5 | C[C@@H](O)CO[C@H]1CC[C@H](NC(=O)c2nc(-n3ccnc3)nc3cc[nH]c23)CC1 (single isomer, unassigned) [Example 125a] | 10 to 100 nM
6 | O=C(N[C@H]1CC[C@@H](C(F)(F)F)CC1)c1nc(-n2ccnc2)nc2cn[nH]c12 [Example 161] | 10 to 100 nM
7 | CO[C@H]1C[C@H](NC(=O)c2nc(-n3ccnc3)nc3cc[nH]c23)C1 [Example 66, 2-(1H-Imidazol-1-yl)-N-((1r,3r)-3-methoxycyclobutyl)-5H-pyrrolo[3,2-d]pyrimidine-4-carboxamide] | 10 to 100 nM
8 | COCCO[C@H]1CC[C@H](NC(=O)c2nc(-n3ccnc3)cc3cnn(C)c23)CC1 [Example 197, 5-(1H-imidazol-1-yl)-N-((1r,4r)-4-(2-methoxyethoxy)cyclohexyl)-1-methyl-1H-pyrazolo[3,4-c]pyridine-7-carboxamide] | 10 to 100 nM
9 | O=C(N[C@H]1CC[C@H](C(F)(F)F)CC1)c1nc(-n2ccnc2)nc2ccsc12 [Example 121, 2-(1H-imidazol-1-yl)-N-((1r,4r)-4-(trifluoromethyl)cyclohexyl)thieno[3,2-d]pyrimidine-4-carboxamide] | < 10 nM
10 | O=C(NC1CCC(F)(F)CC1)c1nc(-n2ccnc2)nc2ccsc12 [Example 149] | < 10 nM
11 | CNC(=O)C[C@H]1CC[C@H](NC(=O)c2nc(-n3ccnc3)cc3cn[nH]c23)CC1 [Example 199, 5-(1H-imidazol-1-yl)-N-((1r,4r)-4-(2-(methylamino)-2-oxoethyl)cyclohexyl)-1H-pyrazolo[3,4-c]pyridine-7-carboxamide] | 10 to 100 nM
12 | CC(C)NC(=O)c1nc(-n2ccnc2)nc2cc[nH]c12 [Example 93, 2-(1H-Imidazol-1-yl)-N-isopropyl-5H-pyrrolo[3,2-d]pyrimidine-4-carboxamide] | 10 to 100 nM
13 | O=C(N[C@H]1CC[C@H](NCC(F)(F)F)CC1)c1nc(-n2ccnc2)nc2ccsc12 [Example 220, 2-(1H-imidazol-1-yl)-N-((1r,4r)-4-(2,2,2-trifluoroethylamino)cyclohexyl)thieno[3,2-d]pyrimidine-4-carboxamide] | 10 to 100 nM
14 | O=C(N[C@H]1CC[C@@H](NCCC(F)F)CC1)c1nc(-n2ccnc2)nc2cc[nH]c12 [Example 181] | 100 to 1000 nM
15 | O=C(Nc1ccc(N2CCC(N3CCOCC3)CC2)nc1)c1nc(-n2ccnc2)nc2cc[nH]c12 [Example 158] | 10 to 100 nM
16 | COCCO[C@H]1CC[C@H](NC(=O)c2cc(-n3ccnc3)nc3ccsc23)CC1 [Example 24, 5-(1H-Imidazol-1-yl)-N-((1r,4r)-4-(2-methoxyethoxy)cyclohexyl)thieno[3,2-b]pyridine-7-carboxamide] | 10 to 100 nM
17 | CN(C)CCOc1ccc(NC(=O)c2nc(-n3ccnc3)nc3cc[nH]c23)nc1 [Example 129] | 10 to 100 nM
18 | CC(C)[C@H](O)CO[C@H]1CC[C@H](NC(=O)c2nc(-n3ccnc3)nc3cc[nH]c23)CC1 (single isomer, unassigned) [Example 119b] | 10 to 100 nM
19 | COCCOc1ccc(NC(=O)c2nc(-n3ccnc3)nc3cc[nH]c23)cc1F [Example 131] | < 10 nM
20 | C[C@@H](O)[C@H]1CC[C@H](NC(=O)c2nc(-n3ccnc3)nc3ccsc23)CC1 (single isomer, unassigned) [Example 267a] | < 10 nM
21 | O=C(NCc1c(F)cccc1C(F)(F)F)c1nc(-n2ccnc2)nc2cc[nH]c12 [Example 51, N-(2-Fluoro-6-(trifluoromethyl)benzyl)-2-(1H-imidazol-1-yl)-5H-pyrrolo[3,2-d]pyrimidine-4-carboxamide] | 10 to 100 nM

Row | SMILES | IC50
22 | COCCO[C@H]1CC[C@H](NC(=O)c2cc(-c3cncs3)nc3cn[nH]c23)CC1 [Example 17, N-((1r,4r)-4-(2-Methoxyethoxy)cyclohexyl)-5-(thiazol-5-yl)-1H-pyrazolo[4,3-b]pyridine-7-carboxamide] | 100 to 1000 nM
23 | O=C(Nc1ccc(Cl)cc1)c1nc(-n2ccnc2)nc2cc[nH]c12 [Example 87, N-(4-Chlorophenyl)-2-(1H-imidazol-1-yl)-5H-pyrrolo[3,2-d]pyrimidine-4-carboxamide] | < 10 nM
24 | C[C@@H](O)[C@H]1CC[C@H](NC(=O)c2nc(-n3ccnc3)cc3ccsc23)CC1 [Example 264a, N-((1R,4r)-4-((R)-1-hydroxyethyl)cyclohexyl)-5-(1H-imidazol-1-yl)thieno[2,3-c]pyridine-7-carboxamide] | < 10 nM
25 | C[C@](O)(C(=O)NC1CCC(NC(=O)c2nc(-n3ccnc3)nc3cc[nH]c23)CC1)C(F)(F)F (stereo partly drawn) [Example 127b, 2-(1H-imidazol-1-yl)-N-((1R,4r)-4-((S)-3,3,3-trifluoro-2-hydroxy-2-methylpropanamido)cyclohexyl)-5H-pyrrolo[3,2-d]pyrimidine-4-carboxamide] | 10 to 100 nM
26 | O=C(N[C@H]1CC[C@H](OCCN2CCOCC2)CC1)c1nc(-n2ccnc2)nc2cc[nH]c12 [Example 97, 2-(1H-Imidazol-1-yl)-N-((1r,4r)-4-(2-morpholinoethoxy)cyclohexyl)-5H-pyrrolo[3,2-d]pyrimidine-4-carboxamide] | 10 to 100 nM
27 | O=C(NC1CCC(F)(F)CC1)c1nc(-n2ccnc2)cc2cn[nH]c12 [Example 107, N-(4,4-difluorocyclohexyl)-5-(1H-imidazol-1-yl)-1H-pyrazolo[3,4-c]pyridine-7-carboxamide] | < 10 nM
28 | O=C(N[C@@H]1CCCOC1)c1nc(-n2ccnc2)nc2cc[nH]c12 (single isomer, unassigned) [Example 28b] | < 10 nM
29 | COCCO[C@H]1CC[C@H](NC(=O)c2cc(-n3ccnc3)cc3nc(C)[nH]c23)CC1 [Example 30, 5-(1H-imidazol-1-yl)-N-((1r,4r)-4-(2-methoxyethoxy)cyclohexyl)-2-methyl-1H-benzo[d]imidazole-7-carboxamide] | 100 to 1000 nM
30 | COCCO[C@H]1CC[C@H](NC(=O)c2nc(-n3ccnc3)cc3cn[nH]c23)CC1 [Example 16, 5-(1H-Imidazol-1-yl)-N-((1r,4r)-4-(2-methoxyethoxy)cyclohexyl)-1H-pyrazolo[3,4-c]pyridine-7-carboxamide] | 10 to 100 nM
31 | CC(=O)N1Cc2ccc(NC(=O)c3nc(-n4ccnc4)cc4cn[nH]c34)cc2C1 [Example 237, N-(2-acetylisoindolin-5-yl)-5-(1H-imidazol-1-yl)-1H-pyrazolo[3,4-c]pyridine-7-carboxamide] | < 10 nM
32 | O=C(Nc1ccc(Cl)cn1)c1nc(-n2ccnc2)nc2cc[nH]c12 [Example 134] | < 10 nM
33 | COCCO[C@H]1CC[C@H](NC(=O)c2nc(-n3ccnc3)cc3cn(C)nc23)CC1 [Example 196, 5-(1H-imidazol-1-yl)-N-((1r,4r)-4-(2-methoxyethoxy)cyclohexyl)-2-methyl-2H-pyrazolo[3,4-c]pyridine-7-carboxamide] | 10 to 100 nM
34 | O=C(N[C@H]1CC[C@H](C(F)(F)F)CC1)c1nc(-n2ccnc2)nc2cc[nH]c12 [Example 39b, 2-(1H-imidazol-1-yl)-N-((1r,4r)-4-(trifluoromethyl)cyclohexyl)-5H-pyrrolo[3,2-d]pyrimidine-4-carboxamide] | < 10 nM
35 | O=C(Nc1ccon1)c1nc(-n2ccnc2)nc2cc[nH]c12 [Example 162] | < 10 nM
36 | O=C(NCc1c(F)cccc1C(F)(F)F)c1nc(-c2cncs2)cc2nc[nH]c12 [Example 33, N-(2-Fluoro-6-(trifluoromethyl)benzyl)-6-(thiazol-5-yl)-3I-imidazo[4,5-c]pyridine-4-carboxamide] | > 1000 nM
37 | CN(C)CCOc1ccc(NC(=O)c2nc(-n3ccnc3)cc3cn[nH]c23)cn1 [Example 223, N-(6-(2-(dimethylamino)ethoxy)pyridin-3-yl)-5-(1H-imidazol-1-yl)-1H-pyrazolo[3,4-c]pyridine-7-carboxamide] | 10 to 100 nM
38 | O=C(N[C@H]1CC[C@H](C(F)(F)F)CC1)c1nc(-n2ccnc2)nc2cn[nH]c12 [Example 160] | 10 to 100 nM
39 | O=C(NCc1c(F)cccc1C(F)(F)F)c1nc(-c2cncs2)nc2cc[nH]c12 [Example 43, N-(2-Fluoro-6-(trifluoromethyl)benzyl)-2-(thiazol-5-yl)-5H-pyrrolo[3,2-d]pyrimidine-4-carboxamide] | 100 to 1000 nM
40 | O=C(Nc1cnc(OCCN2CCOCC2)c(Cl)c1)c1nc(-n2ccnc2)nc2cc[nH]c12 [Example 156] | < 10 nM
41 | O=C(NCc1c(F)cccc1C(F)(F)F)c1cc(-c2cncs2)cc2cc[nH]c12 [Example 31, N-(2-Fluoro-6-(trifluoromethyl)benzyl)-5-(thiazol-5-yl)-1H-indole-7-carboxamide] | 10 to 100 nM
42 | CC(C)(O)[C@H]1C[C@H](NC(=O)c2nc(-n3ccnc3)cc3cn[nH]c23)C1 [Example 266, N-((1r,3r)-3-(2-hydroxypropan-2-yl)cyclobutyl)-5-(1H-imidazol-1-yl)-1H-pyrazolo[3,4-c]pyridine-7-carboxamide] | 10 to 100 nM
